Results on eight compounds are retold here after US5242924A, “Tetrazolyl-(phenoxy and phenoxyalkyl)-piperidinylpyridazines as antiviral agents” (Sterling Winthrop Inc., priority 1992, dated 1993).

This assay concerns human rhinovirus (HRV) serotypes HRV-2, -1A, 1B, -6, -14, -21, -22, -15, -25, -30, -50, -67, -89, -86 and -41. Briefly: standard plaque reduction assay, panel of human rhinovirus serotypes in HeLa (Ohio) cells. Type of assay: cell-based. Conditions: MIC = 50% plaque reduction, N serotypes: 15 (Ex. 1, 2, 4, 7, 8), 13 (Ex. 3), 2 (Ex. 5, 6); for MIC50 (Rhinovirus): concentration required to inhibit 50% of the tested serotypes; for MIC80 (Rhinovirus): concentration required to inhibit 80% of the tested serotypes. As to the method: The MIC values were determined by a standard plaque reduction assay as follows: HeLa (Ohio) cells in monolayers were infected at a concentration of virus to give approximately 80 plaques per monolayer in the virus control (no drug present). The compound to be tested was serially diluted and included in the agar-medium overlay and in some cases, during the adsorption period as well. The MIC was determined to be that concentration of compound which reduced the number of plaques by 50% with respect to the untreated virus control.
In the standard test procedure, the compounds were tested against a panel of fifteen human rhinovirus (HRV) serotypes, namely HRV-2, -1A, 1B, -6, -14, -21, -22, -15, -25, -30, -50, -67, -89, -86 and -41. The MIC value for each rhinovirus serotype was determined, and the efficacy of each compound was determined in terms of MIC50 and MIC80 values, which is the concentration of the compound required to inhibit 50% and 80%, respectively, of the tested serotypes.
The following Table gives the testing results with the compounds of the invention. The number of serotypes (N) is indicated after the MIC80 figure.

≈ marks a conversion by molar mass, not a printed value.

In the case of `CCCc1ccc(N2CCC(Oc3ccc(-c4nnn(C)n4)cc3)CC2)nn1` [Ex. 3], the MIC50 (Rhinovirus) is 15.7 µg/mL (≈ 41.4 µM) and the MIC80 (Rhinovirus) amounted to 1.82 µg/mL (≈ 4.8 µM).
Compound `Cc1ccc(N2CCC(CCOc3c(C)cc(-c4nnn(C)n4)cc3C)CC2)nn1` [Ex. 8] yielded an MIC50 (Rhinovirus) of 16.8 µg/mL (≈ 41.3 µM) and an MIC80 (Rhinovirus) of 0.66 µg/mL (≈ 1.62 µM).
Taken in the same sequence, the figures for `CCc1ccc(N2CCC(COc3ccc(-c4nnn(C)n4)cc3)CC2)nn1` [Ex. 1] were 13.2 µg/mL (≈ 34.7 µM) and 0.281 µg/mL (≈ 0.742 µM).
The corresponding values for `Cc1ccc(N2CCC(Oc3c(C)cc(-c4nnn(C)n4)cc3C)CC2)nn1` [Ex. 5] are 0.92 µg/mL (≈ 2.42 µM) and 1.8 µg/mL (≈ 4.74 µM).
The corresponding values for `Cc1ccc(N2CCC(Oc3ccc(-c4nnn(C)n4)cc3)CC2)nn1` [Ex. 6] are 0.27 µg/mL (≈ 0.768 µM) and 0.52 µg/mL (≈ 1.48 µM).
`Cc1ccc(N2CCC(COc3c(C)cc(-c4nnn(C)n4)cc3C)CC2)nn1` [Ex. 4] had an MIC50 (Rhinovirus) of 20.1 µg/mL (≈ 51.2 µM) and an MIC80 (Rhinovirus) of 1.48 µg/mL (≈ 3.77 µM).
The corresponding values for `Cc1ccc(N2CCC(CCOc3ccc(-c4nnn(C)n4)cc3)CC2)nn1` [Ex. 7] are 6.64 µg/mL (≈ 17.5 µM) and 0.04 µg/mL (≈ 0.105 µM).
As to `Cc1ccc(N2CCC(COc3ccc(-c4nnn(C)n4)cc3)CC2)nn1` [Ex. 2], the MIC50 (Rhinovirus) stood at 13.3 µg/mL (≈ 36.5 µM) and the MIC80 (Rhinovirus) was found to be 0.141 µg/mL (≈ 0.386 µM).
